Structures are written as SMILES.

Assay [1] deals with Staphylococcus aureus MW2 delta-mecA (mecA-). In words: IC50 (growth, competition assay). As to conditions: cefoxitin: subinhibitory. An outline of the steps: (§1)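 Pre-induced, 1:1-mixed fluorescent S. aureus MW2 mecA+ and ΔmecA strains were grown 20 h at 37 °C, 90% humidity, unshaken, in LB with a daily-set subinhibitory cefoxitin dose, in 1536-well plates. Compounds were given on five- or nine-point 2-fold gradients, in two dye-swapped replicates. DsRed (540/590) and GFP (485/520) were scaled per plate between single-strain control medians, with No Treatment then set to 0.5. Per-strain IC50 was the dose halving the No Treatment signal, or the maximal signal.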

Assay [2] has as its system Staphylococcus aureus MW2 (mecA+). In words: IC50 (growth, competition assay). As to conditions: cefoxitin: subinhibitory. The essentials:
as §1

Broadly, the IC50 is the point on the concentration scale where inhibition reaches its midpoint. Low values mean greater potency, high ones weaker potency. Consider `CCCCCC(=O)Cc1cc(O)cc(O)c1C(=O)Oc1cc(CC(=O)CCCCC)c(C(=O)O)c(OC)c1` [ARTHONIOIC ACID], for which the IC50 amounted to 45.5 µM in assay [1] (fluorescent label: DsRed), 49.7 µM in assay [1] (fluorescent label: GFP), 24 µM in assay [2] (fluorescent label: DsRed) and 56 µM in assay [2] (fluorescent label: GFP).

In the case of `Cc1ccc(S(=O)(=O)c2ccc([N+](=O)[O-])o2)cc1`, the IC50 in assay [1] (fluorescent label: DsRed), in assay [1] (fluorescent label: GFP), in assay [2] (fluorescent label: DsRed) and in assay [2] (fluorescent label: GFP) was less than 9.85 µM each time.

On to `C=CCCCCCCCCCCCc1ccco1` [AVOCADENOFURAN], for which the IC50 in assay [1] (fluorescent label: DsRed) was 16.1 µM; in assay [1] (fluorescent label: GFP), less than 9.85 µM; in assay [2] (fluorescent label: DsRed), 48.4 µM; in assay [2] (fluorescent label: GFP) it was 80.9 µM.

Turning to `O=c1c(O)c(-c2ccc(O)c(O)c2)oc2cc(O)cc(O)c12` [Quercetin dihydrate], the IC50 stood at 18.4 µM in assay [1] (fluorescent label: DsRed), 10.4 µM in assay [1] (fluorescent label: GFP), 56.9 µM in assay [2] (fluorescent label: DsRed) and 55.7 µM in assay [2] (fluorescent label: GFP).

With `COC(=O)CC[C@@H](C)[C@H]1CC[C@H]2[C@@H]3CC[C@@H]4C[C@H](O)CC[C@]4(C)[C@H]3C[C@H](O)[C@]12C` [METHYL DEOXYCHOLATE], the IC50 in assay [1] (fluorescent label: DsRed) came to 13.9 µM; in assay [1] (fluorescent label: GFP), 9.91 µM; in assay [2] (fluorescent label: DsRed) it was 15.4 µM; in assay [2] (fluorescent label: GFP) it was 26.9 µM.

In the case of `CC(=O)[C@H]1CC[C@H]2[C@@H]3CC=C4C[C@@H](OC(=O)CCC(=O)O)CC[C@]4(C)[C@H]3CC[C@]12C` [FORMULA-405], the IC50 was found to be 18.1 µM in assay [1] (fluorescent label: DsRed), 17.7 µM in assay [1] (fluorescent label: GFP), 18.1 µM in assay [2] (fluorescent label: DsRed) and 35 µM in assay [2] (fluorescent label: GFP).

In the case of `CC(C)=CCCC1(C)C=Cc2c(O)c3c(c(CC=C(C)C)c2O1)OC12C(=CCCC1C(C)(C)O[C@@]2(C/C=C(\C)C(=O)O)C(=O)O)C3=O` (some centres not stated) [GARCINOLIC ACID], the IC50 in assay [1] (fluorescent label: DsRed) was less than 9.85 µM; in assay [1] (fluorescent label: GFP) it was less than 9.85 µM; in assay [2] (fluorescent label: DsRed), less than 9.85 µM; in assay [2] (fluorescent label: GFP), 14.8 µM.

With `C[C@H](Cc1ccc(O)c(O)c1)[C@@H](C)Cc1ccc(O)c(O)c1`, the IC50 was less than 9.85 µM in assay [1] (fluorescent label: DsRed), less than 9.85 µM in assay [1] (fluorescent label: GFP), 33.4 µM in assay [2] (fluorescent label: DsRed) and 57.9 µM in assay [2] (fluorescent label: GFP).

As to `CN1CCN(c2cc3c(cc2F)c(=O)c(C(=O)O)cn3-c2ccc(F)cc2)CC1` [DICURAL], the IC50 in assay [1] (fluorescent label: DsRed), in assay [1] (fluorescent label: GFP), in assay [2] (fluorescent label: DsRed) and in assay [2] (fluorescent label: GFP) was less than 9.85 µM throughout.

Take `O=C(Nc1ccc([N+](=O)[O-])cc1Cl)c1cc(Cl)ccc1O` [NICLOSIDE]: the IC50 in assay [1] (fluorescent label: DsRed), in assay [1] (fluorescent label: GFP), in assay [2] (fluorescent label: DsRed) and in assay [2] (fluorescent label: GFP) was less than 9.85 µM in each case.

Take `COc1cc(/C=C/C(=O)CC(=O)/C=C/c2ccc(O)c(OC)c2)ccc1O` [Curcumin]: the IC50 in assay [1] (fluorescent label: DsRed) was found to be 4.13 µM; in assay [1] (fluorescent label: GFP) it was 3.73 µM; in assay [2] (fluorescent label: DsRed) it was 34.7 µM; in assay [2] (fluorescent label: GFP), 53.8 µM.

Regarding `CO/N=C(\C(=O)N[C@@H]1C(=O)N2C(C(=O)O)=C(COC(C)=O)CS[C@H]12)c1csc(N)n1` [CLAFORAN], the IC50 in assay [1] (fluorescent label: DsRed) is less than 9.85 µM; in assay [1] (fluorescent label: GFP), less than 9.85 µM; in assay [2] (fluorescent label: DsRed) it was 15.6 µM; in assay [2] (fluorescent label: GFP) it was 15 µM.

As for `CCOc1ccc2ccccc2c1C(=O)N[C@@H]1C(=O)N2[C@@H]1SC(C)(C)[C@@H]2C(=O)O` [Nafcillin Sodium], the IC50 in assay [1] (fluorescent label: DsRed), in assay [1] (fluorescent label: GFP), in assay [2] (fluorescent label: DsRed) and in assay [2] (fluorescent label: GFP) was less than 9.85 µM throughout.

Turning to `CC1(C)S[C@@H]2[C@H](NC(=O)[C@H](N)c3ccc(O)cc3)C(=O)N2[C@H]1C(=O)O` [Amoxicillin sodium (Amox)], the IC50 was less than 9.85 µM in assay [1] (fluorescent label: DsRed), less than 9.85 µM in assay [1] (fluorescent label: GFP), less than 9.85 µM in assay [2] (fluorescent label: DsRed) and 15.1 µM in assay [2] (fluorescent label: GFP).

Consider `COC(=O)Nc1nc2cc(C(=O)c3cccs3)ccc2[nH]1` [Nocodazole], for which the IC50 in assay [1] (fluorescent label: DsRed) was less than 9.85 µM; in assay [1] (fluorescent label: GFP) it was less than 9.85 µM; in assay [2] (fluorescent label: DsRed), 24.4 µM; in assay [2] (fluorescent label: GFP), 29 µM.

For `CCCCCCCCCCCCCCC[C@H](O)[C@H](N)CO` (racemic) [DL-erythro-Dihydrosphingosine], the IC50 in assay [1] (fluorescent label: DsRed) was less than 9.85 µM; in assay [1] (fluorescent label: GFP), less than 9.85 µM; in assay [2] (fluorescent label: DsRed), 15.1 µM; in assay [2] (fluorescent label: GFP), 10.4 µM.

`COc1cc2c(c(OC)c1OC)-c1ccc(=O)c(O)cc1[C@@H](NC(C)=O)CC2` [COLCHICEINE]: the IC50 was 45.5 µM in assay [1] (fluorescent label: DsRed), 51.2 µM in assay [1] (fluorescent label: GFP), 81.3 µM in assay [2] (fluorescent label: DsRed) and 84.6 µM in assay [2] (fluorescent label: GFP).

`OC(CNCC(O)C1CCc2cc(F)ccc2O1)C1CCc2cc(F)ccc2O1` (configuration not stated) [Nebivolol]: the IC50 in assay [1] (fluorescent label: DsRed) was 35 µM; in assay [1] (fluorescent label: GFP), 19.6 µM; in assay [2] (fluorescent label: DsRed) it was 108 µM; in assay [2] (fluorescent label: GFP), 111 µM.

For `O=C(O)c1nn(Cc2ccc(Cl)cc2Cl)c2ccccc12` [Lonidamine], the IC50 in assay [1] (fluorescent label: DsRed) turned out to be 22.4 µM; in assay [1] (fluorescent label: GFP) it was 15 µM; in assay [2] (fluorescent label: DsRed), 27.7 µM; in assay [2] (fluorescent label: GFP), 78.2 µM.

On to `O=C(NC[C@H]1CN(c2ccc(N3CCOCC3=O)cc2)C(=O)O1)c1ccc(Cl)s1` [XARELTO], for which the IC50 in assay [1] (fluorescent label: DsRed), in assay [1] (fluorescent label: GFP), in assay [2] (fluorescent label: DsRed) and in assay [2] (fluorescent label: GFP) was less than 9.85 µM each time.

For `OCCN1CCN(CCCN2c3ccccc3Sc3ccc(Cl)cc32)CC1` [TRILAFON], the IC50 in assay [1] (fluorescent label: DsRed) turned out to be 18.4 µM; in assay [1] (fluorescent label: GFP), 15.8 µM; in assay [2] (fluorescent label: DsRed), 57 µM; in assay [2] (fluorescent label: GFP), 52.6 µM.

For `CC(C)=CCC[C@]1(C)C=Cc2c(O)c3c(c(CC=C(C)C)c2O1)O[C@]12C(=C[C@@H]4C[C@H]1C(C)(C)O[C@@]2(C/C=C(/C)C(=O)O)C4=O)C3=O` [GAMBOGIC ACID], the IC50 in assay [1] (fluorescent label: DsRed), in assay [1] (fluorescent label: GFP), in assay [2] (fluorescent label: DsRed) and in assay [2] (fluorescent label: GFP) was less than 9.85 µM each time.

For `NC1CCN(c2c(F)cc3c(=O)c(C(=O)O)cn(C4CC4)c3c2Cl)C1` (configuration not stated), the IC50 in assay [1] (fluorescent label: DsRed), in assay [1] (fluorescent label: GFP), in assay [2] (fluorescent label: DsRed) and in assay [2] (fluorescent label: GFP) was less than 9.85 µM each time.
